Data: PubChem BioAssay (NCI)
“And” between values parts separate entries of the source, which are not always exact repeats. Identical values can stand only once.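 96-well plates; 48 h exposure; 5 concentrations. Endpoints by linear interpolation between flanking doses. Not reached: highest tested concentration assigned. The concentration for 50% growth inhibition is given as GI50. Definition used: TGI = concentration required for complete inhibition of growth.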

Legend:
Assay in all cases: NCI tumour cell line growth inhibition, 48 h
[1] = system: A498 renal
[2] = system: HOP-92 NSCLC
[3] = system: SK-MEL-5 melanoma
[4] = system: SN12C renal
[5] = system: HOP-62 NSCLC
[6] = system: UACC-62 melanoma
[7] = system: TK-10 renal
[8] = system: HT29 colon
[9] = system: PC-3 prostate
[10] = system: OVCAR-5 ovarian
[11] = system: KM12 colon
[12] = system: SF-539 CNS
[13] = system: M14 melanoma
[14] = system: K-562 leukemia
[15] = system: 786-0 renal
[16] = system: OVCAR-3 ovarian
[17] = system: NCI-H460 lung
[18] = system: NCI-H522 lung
[19] = system: NCI/ADR-RES ovarian
[20] = system: MCF7 breast
[21] = system: UO-31 renal
[22] = system: MDA-MB-435
[23] = system: SNB-19 CNS
[24] = system: OVCAR-4 ovarian
[25] = system: EKVX NSCLC
[26] = system: SW-620 colon
[27] = system: CCRF-CEM leukemia
[28] = system: BT-549 breast
[29] = system: SK-MEL-2 melanoma
[30] = system: CAKI-1 renal
[31] = system: SR leukemia
[32] = system: IGROV1 ovarian
[33] = system: U251 CNS
[34] = system: SK-MEL-28 melanoma
[35] = system: SNB-75 CNS
[36] = system: NCI-H23 lung
[37] = system: SK-OV-3 ovarian
[38] = system: A549 NSCLC
[39] = system: HCT-116 colon
[40] = system: HL-60(TB) leukemia
[41] = system: OVCAR-8 ovarian
[42] = system: MDA-MB-231 breast
[43] = system: MOLT-4 leukemia
[44] = system: HS 578T breast
[45] = system: NCI-H226 lung
[46] = system: SF-268 CNS
[47] = system: HCT-15 colon
[48] = system: MALME-3M melanoma
[49] = system: RXF 393 renal
[50] = system: COLO 205 colon
[51] = system: SF-295 CNS
[52] = system: RPMI-8226 leukemia
[53] = system: LOX IMVI melanoma
[54] = system: DU-145 prostate
[55] = system: T-47D breast
[56] = system: UACC-257 melanoma
[57] = system: HCC-2998 colon
[58] = system: ACHN renal

## CCc1cc2c(cc1N1CCC(N3CCOCC3)CC1)C(C)(C)c1[nH]c3cc(C#N)ccc3c1C2=O
[1]
  GI50: 817 nM and 867 nM and 1590 nM
  TGI: 4020 nM and 4950 nM and > 10000 nM
[2]
  GI50: 386 nM and 179 nM and 576 nM
  TGI: 3540 nM and 1230 nM and 4840 nM
[3]
  GI50: 1120 nM and 1500 nM and 3000 nM
  TGI: 19200 nM and 14200 nM and > 10000 nM
[4]
  GI50: 2230 nM and 1440 nM and 1550 nM
  TGI: 8690 nM and 6230 nM and 4500 nM
[5]
  GI50: 849 nM and 1400 nM and 1430 nM
  TGI: 2610 nM and 3030 nM and 3420 nM
[6]
  GI50: 3170 nM and 3000 nM and 2640 nM
  TGI: 18100 nM and 13700 nM and > 10000 nM
[7]
  GI50: 1660 nM and 1710 nM and 1420 nM
  TGI: 3610 nM and 3950 nM and 3050 nM
[8]
  GI50: 758 nM and 853 nM and 1510 nM
  TGI: 2540 nM and 3420 nM and > 10000 nM
[9]
  GI50: 921 nM and 653 nM and 738 nM
  TGI: > 36100 nM and 14600 nM and > 10000 nM
[10]
  GI50: 1520 nM and 1290 nM and 1930 nM
  TGI: 19300 nM and 9300 nM and > 10000 nM
[11]
  GI50: 336 nM and 345 nM and 347 nM
  TGI: 5360 nM and 3410 nM and > 10000 nM
[12]
  GI50: 1800 nM and 1580 nM and 1620 nM
  TGI: 3920 nM and 3430 nM and 3860 nM
[13]
  GI50: 1620 nM and 2050 nM and 2170 nM
  TGI: 8880 nM and 11900 nM and > 10000 nM
[14]
  GI50: 3760 nM and 2120 nM and 1940 nM
  TGI: > 41900 nM and 13900 nM and > 10000 nM
[15]
  GI50: 1870 nM and 1710 nM
  TGI: 4010 nM and 3760 nM and 3460 nM
[16]
  GI50: 1680 nM and 1650 nM
  TGI: 4000 nM and 3420 nM and 3910 nM
[17]
  GI50: 1470 nM and 1740 nM and 1680 nM
  TGI: 4030 nM and 4170 nM and 7640 nM
[18]
  GI50: 1170 nM and 1690 nM and 1480 nM
  TGI: 3810 nM and 4880 nM and 5850 nM
[19]
  GI50: 1010 nM and 1390 nM and 1590 nM
  TGI: 3810 nM and 6340 nM and 6470 nM
[20]
  GI50: 1660 nM and 1640 nM and 1340 nM
  TGI: > 23800 nM and 15600 nM and > 10000 nM
[21]
  GI50: 1230 nM and 1130 nM and 1000 nM
  TGI: 3120 nM and 2750 nM and 2720 nM
[22]
  GI50: 1460 nM and 1340 nM and 2100 nM
  TGI: 5970 nM and 5530 nM and > 10000 nM
[23]
  GI50: 1660 nM and 1790 nM and 3170 nM
  TGI: 4020 nM and 4440 nM and > 10000 nM
[24]
  GI50: 648 nM and 1350 nM and 1630 nM
  TGI: 2260 nM and 2860 nM and 3590 nM
[25]
  GI50: 1560 nM and 2040 nM
  TGI: 6850 nM and > 10000 nM
[26]
  GI50: 924 nM and 1260 nM and 1080 nM
  TGI: > 21800 nM and 22000 nM and > 10000 nM
[27]
  GI50: 745 nM and 826 nM and 1540 nM
  TGI: > 100000 nM
[28]
  GI50: 1490 nM and 1600 nM
  TGI: 3690 nM and 3870 nM
[29]
  GI50: 2620 nM and 2860 nM and 5460 nM
  TGI: 9130 nM and 9770 nM and > 10000 nM
[30]
  GI50: 1260 nM and 1280 nM and 1130 nM
  TGI: 12400 nM and 4570 nM and 3870 nM
[31]
  GI50: < 14.9 nM and 16.5 nM and 52.5 nM
[32]
  GI50: 2480 nM and 1450 nM and 772 nM
  TGI: 16700 nM and 5160 nM and 4000 nM
[33]
  GI50: 1330 nM and 1430 nM and 1400 nM
  TGI: 2760 nM and 3280 nM and 2960 nM
[34]
  GI50: 1950 nM and 1870 nM and 2320 nM
  TGI: 4480 nM and 4040 nM and 6750 nM
[35]
  GI50: 1030 nM and 1250 nM and 1380 nM
  TGI: 2630 nM and 2730 nM and 2900 nM
[36]
  GI50: 2800 nM and 3450 nM and 5940 nM
  TGI: 38600 nM and 20000 nM and > 10000 nM
[37]
  GI50: 1640 nM and 1870 nM and 2840 nM
  TGI: 3400 nM and 3720 nM and 8640 nM
[38]
  GI50: 1360 nM and 1510 nM and 1310 nM
  TGI: 3050 nM and 3880 nM and 3670 nM
[39]
  GI50: 1760 nM and 1790 nM and 3100 nM
  TGI: 3850 nM and 3600 nM and > 10000 nM
[40]
  GI50: 1700 nM and 1020 nM and 443 nM
  TGI: > 100000 nM
[41]
  GI50: 648 nM and 935 nM and 1300 nM
  TGI: 2480 nM and 3110 nM and 3570 nM
[42]
  GI50: 1530 nM and 1710 nM and 2110 nM
  TGI: 5210 nM and 4650 nM and 6370 nM
[43]
  GI50: 1570 nM and 973 nM and 1380 nM
  TGI: > 100000 nM and 14700 nM and > 10000 nM
[44]
  GI50: 1210 nM and 1510 nM and 530 nM
  TGI: 4880 nM and 5560 nM and 4220 nM
[45]
  GI50: 1750 nM and 1630 nM and 1610 nM
  TGI: 4320 nM and 3970 nM and 5190 nM
[46]
  GI50: 1570 nM and 1540 nM and 1920 nM
  TGI: 4020 nM and 3970 nM and 5470 nM
[47]
  GI50: 2020 nM and 1350 nM and 1140 nM
  TGI: > 33400 nM and 10600 nM and 3750 nM
[48]
  GI50: 1410 nM and 1400 nM and 2300 nM
  TGI: 5620 nM and 5270 nM and > 10000 nM
[49]
  GI50: 1500 nM and 1530 nM
  TGI: 3470 nM and 3780 nM and 3840 nM
[50]
  GI50: 1950 nM and 2210 nM and 1640 nM
  TGI: 6370 nM and 7160 nM and 8450 nM
[51]
  GI50: 2560 nM and 2950 nM and 1610 nM
  TGI: 9060 nM and 13200 nM and 3680 nM
[52]
  GI50: 549 nM and 415 nM and 497 nM
  TGI: 8900 nM and > 10000 nM
[53]
  GI50: 1630 nM and 1730 nM and 1520 nM
  TGI: 6380 nM and 5470 nM and 4190 nM
[54]
  GI50: 1670 nM and 1460 nM and 1950 nM
  TGI: 5960 nM and 3520 nM and 7190 nM
[55]
  GI50: 2200 nM and 1940 nM and 2180 nM
  TGI: 10900 nM and 5320 nM and > 10000 nM
[56]
  GI50: 2300 nM and 3200 nM
  TGI: 21100 nM and 25900 nM and > 10000 nM
[57]
  GI50: 4330 nM and 3730 nM
  TGI: > 43700 nM and 17800 nM and > 10000 nM
[58]
  GI50: 1920 nM and 1540 nM and 1410 nM
  TGI: 4540 nM and 3350 nM and 4670 nM
